Columns and labels:
Conditions in all cases: 72 h
[1] = system: Caco-2; test: cell viability relative to DMSO; higher = less toxic
[2] = system: Calu-3; test: as above
[3] = system: HepG2; test: as above
[4] = system: U2OS; test: as above
[5] = system: Vero E6; test: as above
[6] = system: Caco-2; test: relative viability EC50 (midpoint between 100% and the lowest measured viability); higher = less toxic
[7] = system: Calu-3; test: as above
[8] = system: HepG2; test: as above
[9] = system: U2OS; test: as above
[10] = system: Vero E6; test: as above
[11] = system: Caco-2; test: drug sensitivity score (DSS) for viability; higher = more toxic; extreme values may be limits of the assay
[12] = system: Calu-3; test: as above
[13] = system: HepG2; test: as above
[14] = system: U2OS; test: as above
[15] = system: Vero E6; test: as above

| SMILES | cell viability ([1]; 1 nM) | cell viability ([1]; 10 nM) | cell viability ([1]; 100 nM) | cell viability ([1]; 1000 nM) | cell viability ([1]; 10000 nM) | cell viability ([2]; 1 nM) | cell viability ([2]; 10 nM) | cell viability ([2]; 100 nM) | cell viability ([2]; 1000 nM) | cell viability ([2]; 10000 nM) | cell viability ([3]; 1 nM) | cell viability ([3]; 10 nM) | cell viability ([3]; 100 nM) | cell viability ([3]; 1000 nM) | cell viability ([3]; 10000 nM) | cell viability ([4]; 1 nM) | cell viability ([4]; 10 nM) | cell viability ([4]; 100 nM) | cell viability ([4]; 1000 nM) | cell viability ([4]; 10000 nM) | cell viability ([5]; 1 nM) | cell viability ([5]; 10 nM) | cell viability ([5]; 100 nM) | cell viability ([5]; 1000 nM) | cell viability ([5]; 10000 nM) | relative viability EC50 [6] | relative viability EC50 [7] | relative viability EC50 [8] | relative viability EC50 [9] | relative viability EC50 [10] | drug sensitivity score [11] | drug sensitivity score [12] | drug sensitivity score [13] | drug sensitivity score [14] | drug sensitivity score [15] |
| --- | --- | --- | --- | --- | --- | --- | --- | --- | --- | --- | --- | --- | --- | --- | --- | --- | --- | --- | --- | --- | --- | --- | --- | --- | --- | --- | --- | --- | --- | --- | --- | --- | --- | --- | --- |
| NC(=O)NCCC[C@H](N)C(=O)O [L-citrulline] | 99% | 104% | 92.3% | 101% | 92.4% | 101% | 92.2% | 98.6% | 96.9% | 110% | 100% | 95.2% | 92.7% | 91.4% | 94% | 98.7% | 102% | 95.5% | 105% | 95.6% | 98.6% | 96% | 97.2% | 97.8% | 102% | > 10 µM | > 10 µM | > 10 µM | > 10 µM | > 10 µM | 0 | 0 | 0 | 0 | 0 |
| N=C(Nc1ccccc1)c1cccs1 [LTA] | 89.4% | 88.4% | 98.1% | 93.7% | 82.8% | 97.6% | 104% | 97.4% | 104% | 91.6% | 105% | 105% | 96.8% | 99.1% | 110% | 99.9% | 104% | 95.9% | 104% | 95.7% | 99.7% | 101% | 93.5% | 99.1% | 103% | > 10 µM | > 10 µM | > 10 µM | > 10 µM | > 10 µM | 0 | 0 | 0 | 0 | 0 |
| CN1C(=O)C(F)=C[C@]2(C)[C@H]3CC[C@]4(C)[C@@H](C(=O)NCc5nc6cccnc6[nH]5)CC[C@H]4[C@@H]3CC[C@@H]12 [MK-0773] | 102% | 92.4% | 100% | 83.3% | 87.7% | 103% | 103% | 101% | 97.7% | 100% | 91.1% | 108% | 93% | 91.4% | 87.9% | 99% | 99.4% | 98.8% | 95.4% | 95.9% | 99.2% | 102% | 96.2% | 104% | 104% | > 10 µM | > 10 µM | > 10 µM | > 10 µM | > 10 µM | 1.8 | 0 | 0.9 | 0 | 0 |
| CC(C)(C)NC(=O)[C@@H](c1cccnc1)N(C(=O)c1ccco1)c1ccc(C(C)(C)C)cc1 [ML188] | 99.7% | 95% | 98.2% | 101% | 89.9% | 93.6% | 93.4% | 96.9% | 102% | 89.7% | 96.3% | 101% | 92.1% | 106% | 95% | 93.9% | 100% | 96.6% | 101% | 98.8% | 93.1% | 97.7% | 103% | 108% | 97.6% | > 10 µM | > 10 µM | > 10 µM | > 10 µM | > 10 µM | 0 | 0 | 0 | 0 | 0 |
| CCC(CC)(NC(=O)C(C)C)C(=O)N[C@@H](CCCNC(=N)N)C(=O)NC1(C(=O)NC(c2ccc(F)cc2)c2ccc(F)cc2)CCCC1 [MM-102] | 99% | 93.9% | 101% | 94.6% | 102% | 98.1% | 85.4% | 92.5% | 97.8% | 97.8% | 100% | 96.8% | 98.4% | 105% | 114% | 97.8% | 94.9% | 101% | 95.8% | 99.2% | 94.2% | 101% | 97.3% | 99.5% | 106% | > 10 µM | > 10 µM | > 10 µM | > 10 µM | > 10 µM | 0 | 0 | 0 | 0 | 0 |
| CNC(=O)c1ccccc1Nc1nc(Nc2ccc(N3CCOCC3)cc2OC)ncc1Cl [NVP-TAE226] | 96% | 104% | 88.3% | 54.1% | 44.2% | 93.1% | 90.8% | 86.2% | 74.5% | 41.9% | 114% | 99.6% | 91.3% | 33.1% | 20.8% | 99.9% | 100% | 94.1% | 69% | 22% | 99.6% | 97.7% | 96.3% | 66.7% | 48.4% | 0.295 µM | 0.706 µM | 0.356 µM | 1.26 µM | 0.645 µM | 9.8 | 6.9 | 13.5 | 7.9 | 6.8 |
| N[C@H]1C[C@@H]1c1ccc(-c2cccc(O)c2)cc1 [OG-L002] | 104% | 100% | 102% | 101% | 105% | 108% | 106% | 99.3% | 95.3% | 108% | 103% | 97.6% | 100% | 115% | 114% | 101% | 94.3% | 98.3% | 97.8% | 96.4% | 96% | 103% | 95.9% | 104% | 107% | > 10 µM | > 10 µM | > 10 µM | > 10 µM | > 10 µM | 0 | 0 | 0 | 0 | 0 |
